Assay results published in US20240148821A1, “PHARMACEUTICAL USE OF CYCLIC PEPTIDE COMPOUND” (CHUGAI SEIYAKU KABUSHIKI KAISHA, priority 2021, published 2024).
Numbered stars: 1 amine (or outer) side, 2 acyl side, 3 side chain; on linkers, the order of the positions; unused ones are H or OH. Bridge positions count the residues as written; N and C are the ends. Square brackets hold non-standard residues; d marks the D form. Peptide text beside a SMILES is read from it. * marks the point of attachment. hPhe(3,5-F2-4-CF3) = N[C@@H](CCc1cc(F)c(C(F)(F)F)c(F)c1)C(=O)O; hPhe(3-Cl-4-CF3) = N[C@@H](CCc1ccc(C(F)(F)F)c(Cl)c1)C(=O)O; NMePhe(4-CF3) = CN[C@@H](Cc1ccc(C(F)(F)F)cc1)C(=O)O; NMePhe(4-F) = CN[C@@H](Cc1ccc(F)cc1)C(=O)O; NMedβ3hAla = C[C@H](CC(=O)[*:2])N(C)[*:1]; NMeGly(cPent) = CN[C@H](C(=O)O)C1CCCC1; X28 = O=C(CN(C1CC2(COC2)C1)[*:1])[*:2]; NMeCha = CN[C@@H](CC1CCCCC1)C(=O)O; Hyp = O=C(O)[C@@H]1C[C@@H](O)CN1; NMeChg = CN[C@H](C(=O)O)C1CCCCC1; NMeD = CN[C@@H](CC(=O)O)C(=O)O; NMeL = CN[C@@H](CC(C)C)C(=O)O; NMePra = C#CC[C@H](NC)C(=O)O; NMeV = CN[C@H](C(=O)O)C(C)C; d(β3hA) = C[C@@H](N)CC(=O)O; NMeS = CN[C@@H](CO)C(=O)O; NMeA = CN[C@@H](C)C(=O)O; Piperidide = C1CCN(*)CC1; Pyrrolidide = C1CCN(*)C1; dNMeA = CN[C@H](C)C(=O)O; Ac5c = NC1(C(=O)O)CCCC1; Aze = O=C(O)[C@@H]1CCN1; Sar = CNCC(=O)O; Propyl = CCC*

Columns and labels:
[1] = target: protein-protein interaction between Kras and SOS1 (biotin-tagged human Kras loaded with GDP, His-tagged human SOS1) (Homo sapiens (Human), UniProt P01116, G12D); assay: Protein-protein interaction inhibition between Kras and SOS1 (KrasG12D-SOS PPI) using AlphaScreen; assay type: biochemical; settings: AlphaScreen; biotin-tagged human Kras loaded with GDP, His-tagged human SOS1; read-out: KRAS G12D-SOS PPI IC50;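 further: kras produced in E. coli, Ni-coupled donor beads and streptavidin acceptor beads, excitation 680 nm with emission detected at 520–620 nm via singlet oxygen transfer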
[2] = test system: Human pancreatic cancer cell line AsPC-1 (G12D mutation Kras); assay: AsPC-1 cell growth inhibition (AsPC-1 CGI); assay type: cell-based; settings: read-out: AsPC-1 cell growth inhibition, 50% growth inhibitory concentration (IC50 value); 96 hours, CellTiter-Glo, values classified in ranges

| Structure (SMILES) | IC50 [1] | IC50 [2] |
| --- | --- | --- |
| CC[C@H](C)[C@@H]1NC(=O)[C@H](CC(C)C)N(C)C(=O)C[C@@H](C(=O)N2CCCCC2)N(C)C(=O)[C@H](C2CCCCC2)N(C)C(=O)C2(CCCC2)NC(=O)CN(C2CC3(COC3)C2)C(=O)[C@H](CCc2ccc(C(F)(F)F)c(Cl)c2)NC(=O)CN(C)C(=O)[C@H](CC2CCCCC2)N(C)C(=O)CN(C)C(=O)CN(C)C1=O [Compound 2030] ([NMeL]I[Sar][Sar][NMeCha][Sar][hPhe(3-Cl-4-CF3)][X28][Ac5c][NMeChg][NMeD]-Piperidide; lactam N-11) | 2.3 nM | > 500 nM |
| CC[C@H](C)[C@@H]1NC(=O)[C@H](C)N(C)C(=O)C[C@@H](C(=O)N2CCCCC2)N(C)C(=O)[C@H](C(C)C)N(C)C(=O)C2(CCCC2)NC(=O)[C@@H]2CCCN2C(=O)[C@H](CCc2ccc(C(F)(F)F)c(Cl)c2)NC(=O)[C@@H](C)N(C)C(=O)[C@H](CC2CCCCC2)N(C)C(=O)[C@@H]2CCN2C(=O)CN(C)C1=O [Compound 115] ([NMeA]I[Sar][Aze][NMeCha][dNMeA][hPhe(3-Cl-4-CF3)]P[Ac5c][NMeV][NMeD]-Piperidide; lactam N-11) | 6 nM | > 500 nM |
| C#CC[C@H]1C(=O)N(C)[C@H](C(=O)N2CCCCC2)CC(=O)N(C)[C@@H](CC(C)C)C(=O)N[C@@H]([C@@H](C)CC)C(=O)N(C)[C@@H](C)C(=O)N2CC[C@H]2C(=O)N(C)[C@@H](CC2CCCCC2)C(=O)N(C)CC(=O)N[C@@H](CCc2ccc(C(F)(F)F)c(Cl)c2)C(=O)N2CCC[C@H]2C(=O)NC2(CCCC2)C(=O)N1C [Compound 766] ([NMeL]I[NMeA][Aze][NMeCha][Sar][hPhe(3-Cl-4-CF3)]P[Ac5c][NMePra][NMeD]-Piperidide; lactam N-11) | 130 nM | > 500 nM |
| CCCOC[C@H]1C(=O)NC2(CCCC2)C(=O)N(C)[C@@H](C2CCCCC2)C(=O)N(C)[C@H](C(=O)N2CCCCC2)CC(=O)N(C)[C@@H](CC(C)C)C(=O)N[C@@H]([C@@H](C)CC)C(=O)N(C)CC(=O)N(C)CC(=O)N(C)[C@@H](CC2CCCCC2)C(=O)N(C)CC(=O)N[C@@H](CCc2ccc(C(F)(F)F)c(Cl)c2)C(=O)N1C [Compound 692] ([NMeL]I[Sar][Sar][NMeCha][Sar][hPhe(3-Cl-4-CF3)][NMeS](Propyl)[Ac5c][NMeChg][NMeD]-Piperidide; lactam N-11) | 6.9 nM | > 500 nM |
| CCO[C@@H]1C[C@H]2C(=O)NC3(CCCC3)C(=O)N(C)[C@@H](C3CCCC3)C(=O)N(C)[C@H](C(=O)N3CCCC3)CC(=O)N(C)[C@@H](CC(C)C)C(=O)N[C@@H]([C@@H](C)CC)C(=O)N(C)CC(=O)N(C)CC(=O)N(C)[C@@H](CC3CCCCC3)C(=O)N(C)CC(=O)N[C@@H](CCc3cc(F)c(C(F)(F)F)c(F)c3)C(=O)N2C1 [Compound 1162] ([NMeL]I[Sar][Sar][NMeCha][Sar][hPhe(3,5-F2-4-CF3)][Hyp](Et)[Ac5c][NMeGly(cPent)][NMeD]-Pyrrolidide; lactam N-11) | 0.57 nM | ≤ 20 nM |
| CC[C@H](C)[C@@H]1NC(=O)[C@H](CC(C)C)N(C)C(=O)C[C@@H](C)N(C)C(=O)[C@H](C2CCCC2)N(C)C(=O)C2(CCCC2)NC(=O)[C@@H]2CCCN2C(=O)[C@H](CCc2ccc(C(F)(F)F)c(Cl)c2)NC(=O)CN(C)C(=O)[C@H](Cc2ccc(C(F)(F)F)cc2)N(C)C(=O)[C@@H]2CCN2C(=O)[C@H](C)N(C)C1=O [Compound 587] (cyclo([Ac5c][NMeGly(cPent)][NMedβ3hAla][NMeL]I[NMeA][Aze][NMePhe(4-CF3)][Sar][hPhe(3-Cl-4-CF3)]P)) | 1.2 nM | ≤ 20 nM |
| CC[C@H](C)[C@@H]1NC(=O)[C@H](C)N(C)C(=O)C[C@@H](C)NC(=O)[C@H](C(C)C)N(C)C(=O)C2(CCCC2)NC(=O)[C@@H]2CCCN2C(=O)[C@H](CCc2ccc(C(F)(F)F)c(Cl)c2)NC(=O)[C@@H](C)N(C)C(=O)[C@H](Cc2ccc(F)cc2)N(C)C(=O)[C@@H]2CCN2C(=O)[C@H](C)N(C)C1=O [Compound 1702] (cyclo([Ac5c][NMeV][d(β3hA)][NMeA]I[NMeA][Aze][NMePhe(4-F)][dNMeA][hPhe(3-Cl-4-CF3)]P)) | 31 nM | > 500 nM |
